The text below walks through data of patent publication US11945806B2, “Stabilization of amyloidogenic immunoglobulin light chains” (The Scripps Research Institute, priority 2019, dated 2024).

Assay [1] deals with T1, isolated λ3 C-domain (Homo sapiens, UniProt P0DOY3).
T1 construct: made in house; host or cells: E. coli
The experiment in a line: Fluorogenic coumarin titration. The class given is binding. To be noted: 1 at 1 μM.

Assay [2] has as its system κ1-33 LCs (AL12-FL, κ I O18/O8-FL). Put plainly: Fluorogenic coumarin titration, κ1-33 LCs. The following applies: 1 at 1 μM. The class given is binding, human. As to the method: Fluorogenic coumarin titration. LCs were concentrated to 200 μM in centrifugal concentrators with a 10 kDa membrane, unless the available material was limiting. […] Fluorescence of 1 was measured on a Gemini plate reader (Molecular Devices) using an excitation wavelength of 373 nm and emission wavelength of 445 nm. Data were normalized platewise to the plateau fluorescence value for WIL-FL to calculate the fraction of 1 bound.
Of the two classes of human LCs, λ and κ, λ LCs are more commonly observed in AL, but a fraction of patients secrete κ1-33 LCs (12, 33). […] Recombinant expression of these κ1-33 LCs using a similar protocol to that used for λ6-57 LCs yielded both monomeric and dimeric LCs, as shown by SV-AUC (SI Appendix FIG. S7). […] Binding of an excess of κ1-33 LCs (20 μM) to 1 (1 μM) afforded FL LC•1 fluorescence (FIG. 2f, inset).

Assay [3] has as its system 5J8 Fab (LC:HC dimer). Put plainly: Binding of 1 by fluorescence. The following applies: 1 at 1 μM. On the set-up: species or system human.
For assay [4], the target named is WIL-FL (Homo sapiens, UniProt P01721). Put plainly: Equilibrium unfolding, urea titration. It is filed as biochemical. To be noted: 1 at 100 μM or 5 at 50 μM, WIL-FL 5 μM; 1.4 M without ligand. As to the method: Equilibrium unfolding. WIL-FL (5 μM) was titrated against urea in 50 mM sodium phosphate buffer, pH 7.0, containing 50 μM 5 or 100 μM 1. After incubation overnight at 25° C., intrinsic tryptophan fluorescence emission spectra were measured using a Jasco 8600 fluorimeter (μex=280 nm, μem=300-420 nm). Average wavelength (also known as center of spectral mass) values were calculated using the equation: […]
λi and Ii are the are the wavelength and intensity at i, respectively. Average wavelength data were normalized for comparison. […] Midpoint urea concentrations were calculated by fitting the titration data to a 2-state unfolding equation: […]
x is the urea concentration (M), G is the free energy of unfolding (kJ mol^−1), m is the denaturant dependence of the unfolding reaction (kJ mol^−1 M^−1), R is the ideal gas constant, T is the temperature in K, a and c are the fluorescence of the folded and unfolded states, and b and d are the denaturant dependence of the fluorescence of the folded and unfolded states, respectively.

Assay [5] deals with JTO-V (Homo sapiens, UniProt P01721). The experiment in a line: NMR native-state hydrogen-deuterium exchange. The class given is biochemical. The following applies: 1 at 500 μM. As to the method:
(§1) Native-state hydrogen exchange experiments were measured for WIL-V at 0.2 mM and JTO-V at 0.1 mM with or without 0.5 mM 1. […] Per-residue exchange rates k, were converted to free energies using the equation where krc are the residue-specific exchange rates of unprotected amides (18):
(§2) To verify that binding of 1 reduces LC unfolding under non-denaturing conditions, we measured residue-specific hydrogen-deuterium exchange rates by NMR of WIL-V and JTO-V (100 μM) in the absence of or with 1 (500 μM). These rates (the decrease in intensity of the HSQC peak associated with each amide) are converted to free energies that report on each amide's folding equilibrium by normalizing for the published exchange rates of amides in unstructured peptides.

In assay [6] the target is T2, WIL-V (Homo sapiens, UniProt P01721). Put plainly: NMR native-state hydrogen-deuterium exchange. The class given is biochemical. The following applies: 1 at 500 μM. How it is done: as §1, §2
Assay [7] has as its system WIL-FL C214S. Put plainly: Aggregation measured by SEC (disappearance of soluble dimeric LC). It is filed as biochemical, human. To be noted: 1 at 200 μM, LC 10 μM, pH 5, 37° C.; 0.066 hr^−1 in the absence of 1. As to the method: (§3) Aggregation. WIL C214S was dialyzed into ddH2O and filtered. Each 1 ml reaction contained 10 μM LC, ddH2O, 1% DMSO or 200 μM 1 in 1% DMSO, 150 mM NaCl, and ABC buffer (20 mM sodium acetate, 20 mM boric acid, 20 mM sodium citrate, pH 5 with HCl). Components are listed in the order they were added.
For analysis by SEC, reactions were set up in 2 ml tubes (Axygen #SCT-200-B-S) equipped with 4 mm stir bars. For each experiment, four reactions (two replicates each of vehicle and 1) were placed in a microfuge tube rack on top of the center of a stir plate. Reactions were stirred at approximately 2,000 rpm at 37° C., and 60 μl aliquots were removed at the indicated timepoints. Aliquots were centrifuged at 16,000 g at 4° C. for 5 min. 10 μl of the supernatant was injected into a Waters Acquity H-Class Bio-UPLC (ultra performance liquid chromatography) instrument equipped with a BEH200 SEC column (Waters, Milford, MA) equilibrated with PBS with 1 mM EDTA. At the end of an experiment, stir bars were washed for at least 3 h with 1 M NaOH, followed by at least 3 h with 6 M GuHCl at room temperature to remove residual aggregates.
Thus, we also quantified aggregation by measuring the rate of disappearance of soluble dimeric LC using size exclusion chromatography (SEC) (4). […]

Assay [8] concerns WIL-FL C214S. The experiment in a line: Thioflavin T aggregation kinetics. The class given is biochemical, human. The following applies: thioflavin T fluorescence. How it is done: as §3
Thioflavin T (ThT)-containing aggregation reactions were set up in 96-well plates with similar conditions used for the reactions described above, except each 100 μl reaction also contained 2 μM ThT. Aggregation was induced with shaking as previously described (4). In total, 21 replicates for both vehicle and 1, over four independent experiments (plates) were performed.
WIL-FL C214S aggregates upon vigorous stirring at or below pH 5 to form heterogenous aggregate structures. […] This may be because a given LC can stochastically form different aggregate structures with different kinetics.

Assay [9] addresses T2, WIL-V. The experiment in a line: Sedimentation velocity analytical ultracentrifugation (SV-AUC). To be noted: LC 20 μM, 1 at 100 μM. As to the method:
Analytical Ultracentrifugation (AUC). […] Sedimentation was measured by absorbance at 280 nm. Data were processed using SedFit (6).

The test system of assay [10] is WIL-FL and JTO-FL with residue 46 mutated to leucine. The experiment in a line: Fluorogenic coumarin titration, residue 46 to leucine variants. The class given is binding, human. From the text: The residues used by JTO to bind 1 are highly conserved (FIG. 3d). Residues Y36, P44, Y87 and F98 are present in 88, 99, 95 and 100% of all human germline LC genes, respectively, whereas T46 is only present in two functional germline genes.

For `CCN(CC)c1ccc2c(C)cc(=O)oc2c1` [Compound 1, 7-diethylamino-4-methylcoumarin], the “binding of 1” value in assay [1] is given as “No binding”; in assay [2] it was “weaker than binding to λ6-57 LCs”. Further, in assay [3], the “binding to 1 as measured by fluorescence” value is recorded as “no apparent binding”. For the same compound, the “midpoint concentration of urea required to unfold the FL LC” value in assay [4] is reported as 2.0 M. The “average stabilization (free energy from exchange rates)” value in [5] and in [6] was 0.6 kcal/mol in each case. Also, the kagg in assay [7] was 0.011 h⁻¹. Further, the “rate of aggregation versus vehicle control” value in assay [8] is on record as “decreases the rate of aggregation significantly”. The “size distribution (SV-AUC)” value in assay [9] is recorded as “increase”. Besides, the “binding affinity of 1” value in assay [10] is “slightly enhances the binding affinity”.
